This is an account of results in patent US12708624B2, “Methods of treating pulmonary fibrosis” (Amplia Therapeutics Limited, priority 2020, dated 2026).

Series [1] relates to off-target kinase. The settings on record: literature; cited from earlier work.
The subject of series [2] is dog hepatocytes. The series can be described thus: metabolites upon exposure to dog hepatocytes.
Series [3] concerns common cytochrome P450s. Briefly: inhibition of common cytochrome P450s.
Series [4] in a line: exposure following oral dosing in rats.
Series [5] can be described thus: exposure following oral dosing in dogs.
Series [6] deals with human hepatocytes. The series can be described thus: metabolites upon exposure to human hepatocytes.
Series [7] relates to rat hepatocytes. The series can be described thus: metabolites upon exposure to rat hepatocytes.
Series [8] relates to bleomycin-induced lung fibrosis. Briefly: bleomycin-induced lung fibrosis, treatment model. It counts as in vivo, C57BL/6 mice. On the procedure: (§1) FIG. 1. Protocols used to assess the ability of the compound of Formula I to prevent or treat lung fibrosis induced by intratracheal bleomycin (30 μl; 0.05 U/mouse) or PBS (30 μl; vehicle control).
FIG. 4. […] (a) The Ashcroft score was used to obtain a semi quantitative analysis of fibrosis (n=4 mice per group). (b) Acid-soluble collagen content in the mouse lung (n=8 mice per group).
(§2) FIG. 5. Measurements of airways hyper-responsiveness (AHR) after methacholine challenge in the mouse lung. Panels (a)-(d) prevention protocol at day 23 after a single intra-tracheal dose with PBS or bleomycin and oral dosing with the compound of formula I as indicated. Panels (e)-(h) treatment protocol at day 22 after a single intra-tracheal dose with PBS or bleomycin and oral dose with the compound of formula I as indicated. Panels (a, e) show airways resistance, (b, f) transpulmonary resistance, (c, g) elastance, and (d, h) compliance following challenge with 10 mg/ml methacholine.
(§3) Lung fibrosis in female C57BL/6 mice aged between 6-8 weeks (ARC, Perth, Australia) was induced by a single intra-tracheal dose of bleomycin (0.05 U/mouse). Control mice received 30 μl of buffered saline.
(§4) There were eight mice per group for all experiments and all mice were weighed daily during administration of the treatments.

Series [9] concerns primate hepatocytes. Briefly: metabolites upon exposure to primate hepatocytes.
Series [10] in a line: exposure following oral dosing in mice.
The subject of series [11] is 467 other kinases. The series can be described thus: KINOMEScan assay. Particulars: tested at 1 micromolar; compared to 467 other kinases. In kind it is binding.
The test system of series [12] is bleomycin-induced lung fibrosis. The series can be described thus: bleomycin-induced lung fibrosis, prevention model. It counts as in vivo, C57BL/6 mice. Particulars: for lung damage (Ashcroft score): day 23, vs vehicle; for airways resistance (AHR): vs vehicle. As for the experimental part:
as §1
FIG. 3. Prevention Protocol. a) Measurement of mouse lung fibrosis on day 23 after treatment with PBS, bleomycin and vehicle, bleomycin and the compound of formula I 40 mg/kg or 80 mg/kg (n=8 mice per group). (a) The Ashcroft score was used to obtain a semi quantitative analysis of fibrosis (n=4 mice per group). (b) Acid-soluble collagen content in the mouse lung (n=8 mice per group).
as §2, §3
Mice in the prevention study were dosed orally once daily from 24 hours post bleomycin administration until day 22 with either 200 μl of vehicle (Sterile water containing 0.5% (w/v) hydroxypropylmethylcellulose, 0.5% (v/v) benzyl alcohol and 0.4% (v/v) Tween 80), or the compound of Formula I at a dosage of 40 mg/kg or 80 mg/kg by oral gavage.
as §4

The conditions of series [13]: patients with IPF; cited from earlier work.
The subject of series [14] is idiopathic pulmonary fibrosis. The settings on record: cited from earlier work; for reduction in the rate of decline in FVC: patients with mild or moderate FVC impairment at baseline, over 1 year of treatment.

Take `CN(c1ncccc1CNc1nc(Nc2ccc3c(c2)CC(=O)N3)ncc1C(F)(F)F)S(C)(=O)=O` [PF-562,271]: the off-target kinase activity entry in series [1] is on record as “significant off-target kinase activity”.

Take `CNC(=O)c1ccccc1Nc1nc(Nc2ccc(N3CCOCC3)cc2OC)ncc1Cl` [TAE226]: the off-target kinase activity entry in series [1] is reported as “significant off-target kinase activity”.

With `COc1cc(C2CCN(C)CC2)ccc1Nc1ncc(C(F)(F)F)c(CCc2ccccc2CC(N)=O)n1` [compound of Formula I], the unique metabolites entry in [2], in series [6], in series [7] and in [9] was “no unique metabolites” in each case. Also, the “inhibition of common cytochrome P450s” value in series [3] was “no detectable inhibition”. Moreover, the exposure dose proportionality result in [4], in series [5] and in series [10] was “dose-proportional exposures” in each case. The “airways resistance (AHR)” value in [8] (10 mg/ml methacholine, vs vehicle) is reported as “no effect on airways resistance”; in [12] (40 mg/kg, 10 mg/ml methacholine), “significantly decreased airways resistance”; in [12] (80 mg/kg, 10 mg/ml methacholine), “significantly decreased airways resistance”. Moreover, the “all other measures of AHR (transpulmonary resistance, elastance, compliance)” value in [8] (dosing from day 7 after bleomycin, 10 mg/ml methacholine, vs vehicle) is recorded as “effectively reversed the AHR”. The “lung damage (Ashcroft score)” value was “did not significantly alter bleomycin-induced lung damage” in series [8] (dosing from day 7 after bleomycin, day 22, vs vehicle); “attenuated bleomycin-induced lung damage” in series [12] (40 mg/kg oral once daily); “not at 80 mg/kg attenuated bleomycin-induced lung damage” in series [12] (80 mg/kg oral once daily). The S10 selectivity score in [11] is on record as 0.02. Moreover, the “other measures of AHR (transpulmonary resistance, elastance, compliance)” value in [12] (10 mg/ml methacholine) is “did not significantly inhibit other measures of AHR”.

For the compound `COC(=O)c1ccc2c(c1)NC(=O)/C2=C(\Nc1ccc(N(C)C(=O)CN2CCN(C)CC2)cc1)c1ccccc1` [nintedanib], in [13], the “side effects / most common adverse effects” value was “nausea and diarrhea”. Also, the “deterioration of FVC on extended treatment” value in series [14] (extended treatment for up to four years) is on record as “sustained decline in deterioration of FVC”. Further, the “reduction in the rate of decline in FVC” value in series [14] is on record as “approximately 50%”.

For `Cc1ccc(=O)n(-c2ccccc2)c1` [pirfenidone], the “side effects / most common adverse effects” value in [13] is “diarrhea, photosensitivity and rash”. Moreover, the “reduction in the rate of decline in FVC” value in series [14] is “approximately 50%”.
